The results in this text go back to patent US4008219A, “4-Benzazonine derivatives and process for preparation thereof” (Nihon Iyakuhin Kogyo Co., Ltd., priority 1973, dated 1977).

Series [1] in a line: Hygroscopicity of the salt. The settings on record: crystalline salt, cis-form. It is filed as physicochemical.
Series [2] concerns mice of the ddN-series. As to the kind of experiment: Analgesic test, Chemical Stimulus Method (Writhing Method). The class given is in vivo, mouse. Further details: scale not given here. The settings on record: interabdominal injection, comparative value, scale not given. As to the method: (§1) Results of comparative tests where the medicinal effects of compounds of this invention were compared with those of known compounds such as pentazocine and codeine phosphate by employing mice and guinea pigs as the test animals are shown in the following Tables I and II.
Chemical Stimulus Method^1)
(interabdominal injection)
(§2) Tested Animal: mice of the ddN-series, .male., 20 ± 1 experimental
(§3) Conditions: temperature of 24 ± 1° C., relative humidity of 65
^1) R. Koster, M. Anderson and E. J. De Beer, Federation Proceedings, […]
For orientation: An intraperitoneal irritant provokes the stretching counted in writhing tests.

The test system of series [3] is guinea pigs. As to the kind of experiment: Antitussive effect, Mechanical Stimulus Method. It is filed as in vivo, guinea pig.
Text: as §1
(§4) Comparison of Antitusive Effects
Mechanical Stimulus Method^1)
1) Takagi et al modification [Journal of the Pharmaceutical Society of
Japan, 80, 1497 (1960)] of the test method of H. Konzett and E. Rothlin
[Experientia, 10, 472 (1954)], in which urethane was hypodermically
injected (15 mg/Kg) into guinea pigs and swine hairs were inserted into
the trachea to impart stimulus.

For series [4], the system named is mice of the ddN-series. Kind of series: Analgesic test, Heat Stimulus Method (Hot Plate Method). The settings on record: hypodermic injection, comparative value, scale not given. Further details: reference not given here. It is filed as in vivo, mouse. As to the method:
as §1
Heat Stimulus Method^2)
as §2, §3
^2) G. Woolfe and A. D. Mac Donald; Journal of Pharmacology and […]
On the technique in general: Hot-plate and tail-flick tests time the reaction to a heat stimulus.

For series [5], the system named is mice of the ddN-series. Kind of series: Analgesic test, Pressure Stimulus Method. The class given is in vivo, mouse. The settings on record: hypodermic injection, comparative value, pentazocine 1.0. As to the method:
as §1
Pressure Stimulus Method^3)
R (hypodermic injection)
as §2, §3
^3) A. F. Green, P. A. Yound and E. I. Godfrey; British Journal of
Pharmacology and Chemotherapy, 6, 572 (1951)

The nature of a further series: Acute Toxicity. The settings on record: in vivo; mouse, intravenous injection. As to the method: as §2, §3
In series [6] the test system is guinea pigs. Kind of series: Antitussive effect, Chemical Stimulus Method (SO2 gas). The settings on record: guinea pigs, SO2 gas. It is filed as in vivo, guinea pig.
Text: as §1, §4
2) Takagi et al modification [Journal of Pharmaceutical Society of Japan,
80, 1497 (1960)] of the test method of H. Friebel, C. Reichle and A. V.
Gravenitz [Archiv Fur experimentalle Phathologie und Pharmakologie,
Naunyn-Schmiede-berg's, 224,384 (1955)], in which the test compound was
hypodermically injected into guinea pigs, 30 minutes after the injection
the quinea pigs were put into a desiccator filled with SO2 gas and
kept in the desiccator for 1 minute, then the guinea pigs were put into
another vessel and the degree of coughing was examined.

SMILES strings stand for the structures. Structures can show the parent of a compound that is named as a salt.

For orientation: ED50 means the dose that gives a 50% effect, or the effect in half of the subjects. Usually LD50 stands for the dose expected to kill half of the subjects tested.

Turning to `CCC12CCN(C)CC(C(O)c3ccc(OC)cc31)C2C` (stereo not shown) [Example 10, 4,12-dimethyl-1-ethyl-10-methoxy-2,3,4,5,6,7-hexahydro-1,6-methano-1H-4-benzazonin-7-ol], the hygroscopicity result in series [1] is “very hygroscopic”.
The same measure, in the same setting: in the case of `COc1ccc2c(c1)C1(C)CCN(C)CC(C2O)C1C` (stereo not shown) [Example 12] it was “hygroscopic”.
With `CC1C2CN(C)CCC1(C)c1ccccc1C2O` (stereo not shown) [Example 15], the hygroscopicity result in series [1] is on record as “hygroscopic”.
The same measure, in the same setting: in the case of `CC1C2Cc3ccc(O)cc3C1(C)CCN(C)C2` (stereo not shown) [Example 20] it was “hygroscopic”; in that of `CCC12CCN(C)CC(Cc3ccc(O)cc31)C2C` (stereo not shown) [Example 22], “hygroscopic”.
Regarding `CC1C2Cc3ccccc3C1(C)CCN(C)C2` (stereo not shown) [Example 23], in series [1], the hygroscopicity result is “hygroscopic”.
Take `OC1c2ccccc2C2CCN(CCc3ccccc3)CC1C2` (stereo not shown) [Example 59, hydrobromide]: the solubility in water entry in “Solubility in water” is recorded as “water-soluble”.
In the case of `CC1C2Cc3ccc(O)cc3C1(C)CCN(CCc1ccccc1)C2` (stereo not shown) [Example 87], the hygroscopicity result in series [1] is “being hygro-”.
Take `CC(C)CCN1CCC2(C)c3cc(O)ccc3CC(C1)C2C` (stereo not shown) [Example 89]: the hygroscopicity entry in series [1] is recorded as “being hygro-”.
Turning to `CC1C2Cc3ccc(O)cc3C1(C)CCN(C)C2` (stereo not shown) [Example 90], in series [1], the hygroscopicity result is on record as “being hygro-”.
For `C=CCN1CCC2CC(C1)C(O)c1ccccc12` (stereo not shown) [R=H, R1=H, R2=H, CH2R3=CH2CHCH2, R4=OH, 4-allyl-2,3,4,5,6,7-hexahydro-1,6-methano-1H-4-benzazonin-7-ol], the “Chemical Stimulus Method (Writhing Method)” value with mice of the ddN-series [2] is reported as 1.2. For the same molecule, the ED50 was 18.9 mg/kg in the series on guinea pigs [3] (Cavia porcellus, swine hairs inserted into the trachea) and 15.3 mg/kg with guinea pigs [6] (Cavia porcellus, sc, 0.5 h, hypodermic injection, 1 minute, 30 minutes after injection, read-out: ED50, Chemical Stimulus Method (antitussive)). In the series on guinea pigs [3] (codeine phosphate = 100), the “Effect Ratio to Codeine Phosphate, Mechanical Stimulus Method” value was determined as 76.6. Also, the solubility in water entry in “Solubility in water” is reported as “water soluble”. For the same molecule, in the series on mice of the ddN-series [4], the “Heat Stimulus Method (Hot Plate Method)” value was found to be 1.4. For the same molecule, in the series with mice of the ddN-series [5], the “Pressure Stimulus Method” value came to 1.4. Besides, the LD50 in the series “Acute Toxicity” is 58 mg/kg. Besides, in the series on guinea pigs [6] (codeine phosphate = 100), the “Effect Ratio to Codeine Phosphate, Chemical Stimulus Method” value came to 86.7.
